Results as given in patent publication US20260256751A1, “COMBINATION OF BETA-2-ADRENERGIC RECEPTOR AGONISTS AND GLP-1 RECEPTOR AGONISTS FOR USE IN TREATING HYPERGLYCAEMIA” (ATROGI AB, priority 2023, published 2026).

Assays:
[1] = system: differentiated L6-myotubes; assay: Glucose uptake screen (Biological example 1 of WO 2019/053427); assay type: cell-based; details: compound at 10 μM, activity relative to isoproterenol at 10 μM, read-out: Biological example 1 of WO 2019/053427 (GU)
In short: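 Uptake was read out as ^3H-2-deoxyglucose (50 nM, 10 min) radioactivity in NaOH lysates. Beforehand, overnight-starved, differentiated L6 myotubes received compound at 1×10^−5 M with ICI-118551 present for 1 h 40 min, followed by fresh agonist for a further 20 min in glucose-free medium.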

[2] = system: differentiated L6-myotubes; assay: cAMP production relative to isoprenaline (Biological example 2 of WO 2019/053427); assay type: cell-based; details: 0.25 h, compound at 10 μM, activity relative to isoproterenol at 10 μM
In short: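 Values are cAMP levels relative to isoprenaline at equal concentration (final 1×10^−5 M for both). Stimulation lasted 15 min in differentiated L6 myotubes, using HBSS buffer (pH 7.4) containing 1 mM IBMX, 5 mM HEPES and 1% BSA.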

SMILES	Emax at 10 µM [1]	Emax at 10 µM [2]
CC(=O)N[C@H]1CC[C@@H](CC(C)(C)NC[C@H](O)c2cccc(C(F)(F)F)n2)CC1 [Compound 462, N-[(1R,4s)-4-(2-{(S)-2-hydroxy-2-[6-(trifluoromethyl)-2-pyridyl]ethylamino}-2-methylpropyl)cyclohexyl]acetamide]	25 to 50%	< 25%
CC1(C)C[C@H]([C@@H](O)c2cncc(F)c2)N1 [Compound 217, (S)-[(R)-4,4-dimethyl-2-azetidinyl](5-fluoro-3-pyridyl)methano]	25 to 50%	< 25%
OC(CNCC1CCCCC1)c1ccccc1 (stereo not drawn) [Compound 7, 2-[(cyclohexylmethyl)ami-no]-1-phenyl-1-ethanol]	25 to 50%	< 25%
CC(C)(CC[C@H]1CC[C@@H](O)CC1)NC[C@H](O)c1cccc(F)c1 [Compound 295, (R)-2-{1,1-dimethyl-3-[(1s,4R)-4-hydroxycyclohexyl]propylamino}-1-(m-fluorophenyl)-1-ethanol]	> 75%	< 25%
O[C@@H](c1ccccc1F)C12CCC(CCc3cccnc3)(CC1)N2 [Compound 547, (S)-(o-fluorophenyl){4-[2-(3-pyridyl)ethyl]-7-azabicyclo[2.2.1]hept-1-yl}methanol]	> 75%	< 25%
CC(C)(C)NCC(O)c1ccc(O)cc1 (stereo not drawn) [Compound 4, 2-(tert-butylamino)-1-(p-hydroxyphenyl)-1-ethanol]	> 75%	25 to 50%
CC(C)(C[C@H]1CC[C@H](NS(C)(=O)=O)CC1)NC[C@@H](O)c1cccc(C#N)n1 [Compound 428, 6-[(R)-2-{1,1-dimethyl-2-[(1r,4R)-4-(mesylamino)cyclohexyl]ethylamino}-1-hydroxyethyl]-2-pyridinecarobnitrile]	< 25%	< 25%
CS(=O)(=O)N(Cc1ccccc1)c1ccc(CC23CCC([C@H](O)c4cccc(F)c4)(CC2)N3)cc1 [Compound 473, (R)-[4-({p-[(benzyl)-N-mesylamino]phenyl}methyl)-7-azabicyclo[2.2.1]hept-1-yl](m-fluorophenyl)methanol]	25 to 50%	< 25%
O[C@@H](CNCC[C@H]1CC[C@H](O)CC1)c1cncc(F)c1 [Compound 294, (R)-1-(5-fluoro-3-pyridyl)-2-{2-[(1r,4R)-4-hydroxycyclohexyl]ethylamino}-1-ethanol]	25 to 50%	< 25%
CCCCNCC(O)c1cc(F)c(N)c(F)c1 (stereo not drawn) [Compound 37, 1-(4-amino-3,5-difluorophenyl)-2-(butylamino)-1-ethanol]	> 75%	> 75%
O[C@@H](CNCC[C@H]1CC[C@@H](OCc2ccccc2)CC1)c1cncc(F)c1 [Compound 291, (R)-1-(5-fluoro-3-pyridyl)-2-{2-[(1s,4S)-4-(benzyloxy)cyclohexyl]ethylamino}-1-ethanol]	50 to 75%	< 25%
O[C@@H](CNC1(C(F)(F)F)CC1)c1cccc(F)c1 [Compound 118, (R)-1-(m-fluorophenyl)-2-[1-(trifluoromethyl)cyclopro-pylamino]-1-ethanol]	50 to 75%	< 25%
CC12CCC([C@@H](O)c3cccc(F)c3)(CC1)N2 [Compound 178, (S)-(m-fluorophenyl)(4-methyl-7-azabicyclo[2.2.1]hept-1-yl)methanol]	25 to 50%	< 25%
CN([C@H]1CC[C@@H](CC(C)(C)NC[C@H](O)c2cccc(F)c2)CC1)S(C)(=O)=O [Compound 498, (R)-2-{1,1-dimethyl-2-[(1s,4S)-4-(N-mesyl-N-methylamino)cyclohexyl]ethylamino}-1-(m-fluorophenyl)-1-ethanol]	25 to 50%	< 25%
CC12CCC([C@H](O)c3cccc(Cl)c3)(CC1)N2 [Compound 197, (R)-(m-chlorophenyl)(4-methyl-7-azabicyclo[2.2.1]hept-1-yl)methanol]	> 75%	< 25%
CC(C)(NC[C@H](O)c1cccc(F)c1)[C@H]1CC[C@H](N)CC1 [Compound 381, (R)-1-(m-fluorophenyl)-2-{1-methyl-1-[(1r,4R)-4-aminocyclohexyl]ethylamino}-1-ethanol]	50 to 75%	< 25%
CC(C)(C[C@H]1CC[C@@H](NC(=O)OC(C)(C)C)CC1)NC[C@H](O)c1cccc(C(F)(F)F)n1 [Compound 450, (1R,4s)-4-(2-{(S)-2-hydroxy-2-[6-(trifluoromethyl)-2-pyridyl]ethylamino}-2-methylpropyl)cyclohexyl 2-methyl-2-propanecarbamate]	< 25%	< 25%
CCCCNC[C@H](O)c1cnc(N)s1 [Compound 75, (S)-1-(2-amino-1,3-thiazol-5-yl)-2-(butylamino)-1-ethanol]	25 to 50%	< 25%

SMILES	Emax at 10 µM [1]	Emax at 10 µM [2]
CS(=O)(=O)Nc1cccc(CC23CCC([C@@H](O)c4cccc(F)c4)(CC2)N3)c1 [Compound 514, (S)-(m-fluorophenyl)(4-{[m-(mesylamino)phenyl]methyl}-7-azabicyclo[2.2.1]hept-1-yl)methanol]	50 to 75%	< 25%
Oc1ccc(C(O)CNCC2CCCCC2)cc1 (stereo not drawn) [Compound 6, 2-[(cyclohexylmethyl)ami-no]-1-(p-hydroxyphenyl)-1-ethanol]	> 75%	< 25%
CC(C)(C)NC[C@H](O)c1cccc(N)c1F [Compound 91, (R)-1-(3-amino-2-fluorophenyl)-2-(tert-butylamino)-1-ethanol]	> 75%	25 to 50%
CC(C)(C)NC[C@H](O)c1ccccc1F [Compound 78, (R)-2-(tert-butylamino)-1-(o-fluorophenyl)-1-ethanol]	> 75%	25 to 50%
CC(C)(NC[C@H](O)c1cncc(F)c1)[C@H]1CC[C@H](OCC(=O)O)CC1 [Compound 419, [(1R,4r)-4-{1-[(R)-2-(5-fluoro-3-pyridyl)-2-hydroxyethylamino]-1-methylethyl}cyclohexyloxy]aetic acid]	50 to 75%	< 25%
CC(C)(NC[C@H](O)c1cccc(F)c1)[C@H]1CC[C@H](NS(C)(=O)=O)CC1 [Compound 385, (R)-1-(m-fluorophenyl)-2-{1-methyl-1-[(1r,4R)-4-(mesylamino)cyclohexyl]ethylamino}-1-ethanol]	50 to 75%	< 25%
CC12CC(C1)[C@H]([C@H](O)c1cccc(Cl)c1)N2 [Compound 206, (R)-{(R)-1-methyl-2-azabicyclo[2.1.1]hex-3-yl}(m-chlorophenyl)methanol]	> 75%	< 25%
CCCCNCC(O)c1ccc(F)c(N)c1 (stereo not drawn) [Compound 44, 1-(3-amino-4-fluorophenyl)-2-(butylamino)-1-ethanol]	50 to 75%	< 25%
CS(=O)(=O)N(Cc1ccccc1)c1ccc(CC23CCC([C@@H](O)c4cccc(F)c4)(CC2)N3)cc1 [Compound 472, (S)-[4-({p-[(benzyl)-N-mesylamino]phenyl}methyl)-7-azabicyclo[2.2.1]hept-1-yl](m-fluorophenyl)methanol]	25 to 50%	< 25%
CCC[C@@H]1CCCC[C@H]([C@@H](O)c2cncc(F)c2)N1 [Compound 218, (S)-[(2R,7R)-7-propyl-2-azepanyl](5-fluoro-3-pyridyl)methanol]	< 25%	< 25%
CC1(C)CC[C@@H]([C@@H](O)c2cccc(F)c2)N1 [Compound 145, (S)-[(S)-5,5-dimethyl-2-pyrrolidinyl](m-fluorophenyl)methanol]	25 to 50%	< 25%
COC(=O)[C@H]1CC[C@H](CC(C)(C)NC[C@H](O)c2cncc(F)c2)CC1 [Compound 354, methyl (1R,4r)-4-{2-[(R)-2-(5-fluoro-3-pyridyl)-2-hydroxyethylamino]-2-methylpropyl}cyclohexanecarboxylate]	50 to 75%	< 25%
CCCCCCNCC(O)c1ccc(O)cc1 (stereo not drawn) [Compound 17, 2-(hexylamino)-1-(p-hydroxyphenyl)-1-ethanol]	25 to 50%	< 25%
CO[C@H]1CC[C@H](C[C@]2(C)CC[C@H]([C@H](O)c3cccc(F)c3)N2)CC1 [Compound 364, (R)-[(2R,5S)-5-methyl-5-{[(1r,4S)-4-methoxycyclohexyl]methyl}-2-pyrrolidinyl](m-fluorophenyl)methanol]	> 75%	50 to 75%
CC(C)(C)NC[C@H](O)c1cccc(C#N)n1 [Compound 387, 6-[(S)-2-(tert-butylamino)-1-hydroxyethyl]-2-pyridinecarbonitrile]	> 75%	25 to 50%
CCCCNC[C@H](O)c1cnc(NC(=O)C(C)C)s1 [Compound 74, N-{5-[(2S)-2-(butylamino)-1-hydroxyethyl]-1,3-thiazol-2-yl}2-methylpropionamide]	25 to 50%	< 25%
CCC[C@H]1CCC[C@H]([C@@H](O)c2cncc(F)c2)N1 [Compound 139, (S)-[(2R,6S)-6-propyl-2-piperidyl](5-fluoro-3-pyridyl)methanol]	< 25%	< 25%
CC1(C)C[C@@H]([C@H](O)c2ccccc2F)N1 [Compound 202, (R)-[(S)-4,4-dimethyl-2-azetidinyl](o-fluorophenyl)methanol]	< 25%	< 25%
